This is an account of results in patent US20100075965A1, “PI3 KINASE INHIBITORS AND METHODS OF THEIR USE” (Novartis AG, priority 2006, published 2010).

Molecules are shown by their SMILES. Where two headings read alike, the source gives them in different places.

Test [1] concerns A2780 cells. The experiment in a line: Viability assay in A2780 (Cell Titer Glo). The settings on record: Homo sapiens, A2780 cells, read-out: A2780 Cell prolif. EC50. Format: cell-based, human. The procedure, abridged: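 A2780 cells (1,000/well, DMEM + 10% FBS) were exposed to 3-fold serial dilutions of compound for 72 hrs at 37° C, 5% CO2. Viable cells were read by Cell Titer Glo luminescence, in duplicate, and EC50 values were derived from the curves.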
Background: ATP-based viability assays read luminescence as a measure of living cells.

For test [2], the system named is pSer473-Akt in A2780 cells. The experiment in a line: pSer473 Akt assay to monitor PI3K pathway in A2780 cells (MSD). Format: cell-based. Conditions: Homo sapiens, A2780 cells. The procedure, abridged:
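A2780 cells (15,000/well, adhered overnight) treated 1 h at 37 °C with compound, then lysed; pSer473-Akt and total Akt measured by MSD electrochemiluminescence. The pSer473/total Akt ratio gave percent inhibition versus DMSO, from which EC50 was derived.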

Test [3] deals with PI3 K Alpha (Homo sapiens, UniProt P42336). The experiment in a line: PI3 kinase phosphorylation assays (homogenous solution phase, one step solid phase, ATP depletion/KinaseGlo). Format: biochemical.
Chain of PI3 K Alpha (P42336 whole entry): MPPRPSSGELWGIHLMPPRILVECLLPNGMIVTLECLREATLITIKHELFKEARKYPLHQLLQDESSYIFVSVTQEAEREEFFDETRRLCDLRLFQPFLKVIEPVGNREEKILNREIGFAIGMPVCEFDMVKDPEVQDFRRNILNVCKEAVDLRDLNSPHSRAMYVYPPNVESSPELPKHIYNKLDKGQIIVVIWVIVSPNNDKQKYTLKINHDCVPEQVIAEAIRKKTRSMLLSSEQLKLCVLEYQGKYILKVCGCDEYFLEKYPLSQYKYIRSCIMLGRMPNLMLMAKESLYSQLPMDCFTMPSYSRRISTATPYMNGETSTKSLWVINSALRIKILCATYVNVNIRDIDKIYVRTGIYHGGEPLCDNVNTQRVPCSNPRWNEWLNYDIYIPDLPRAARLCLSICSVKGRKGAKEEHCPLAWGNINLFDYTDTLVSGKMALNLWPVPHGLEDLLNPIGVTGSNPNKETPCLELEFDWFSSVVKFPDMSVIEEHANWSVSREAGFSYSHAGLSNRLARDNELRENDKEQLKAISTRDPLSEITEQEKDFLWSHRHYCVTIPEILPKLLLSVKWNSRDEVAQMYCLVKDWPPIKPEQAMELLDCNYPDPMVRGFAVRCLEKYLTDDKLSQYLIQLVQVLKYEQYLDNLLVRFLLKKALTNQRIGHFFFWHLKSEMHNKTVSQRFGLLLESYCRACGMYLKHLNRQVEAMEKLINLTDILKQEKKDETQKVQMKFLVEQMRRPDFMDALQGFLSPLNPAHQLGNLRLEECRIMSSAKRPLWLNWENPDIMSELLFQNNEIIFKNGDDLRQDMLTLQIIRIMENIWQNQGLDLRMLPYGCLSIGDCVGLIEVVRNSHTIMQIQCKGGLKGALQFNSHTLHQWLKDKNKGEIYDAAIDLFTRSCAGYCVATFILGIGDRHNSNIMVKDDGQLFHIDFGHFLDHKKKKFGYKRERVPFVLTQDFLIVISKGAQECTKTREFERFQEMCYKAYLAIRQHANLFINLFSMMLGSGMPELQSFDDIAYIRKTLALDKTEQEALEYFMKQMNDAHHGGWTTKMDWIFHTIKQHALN
Chain of PI3 K Alpha (P27986 whole entry partner): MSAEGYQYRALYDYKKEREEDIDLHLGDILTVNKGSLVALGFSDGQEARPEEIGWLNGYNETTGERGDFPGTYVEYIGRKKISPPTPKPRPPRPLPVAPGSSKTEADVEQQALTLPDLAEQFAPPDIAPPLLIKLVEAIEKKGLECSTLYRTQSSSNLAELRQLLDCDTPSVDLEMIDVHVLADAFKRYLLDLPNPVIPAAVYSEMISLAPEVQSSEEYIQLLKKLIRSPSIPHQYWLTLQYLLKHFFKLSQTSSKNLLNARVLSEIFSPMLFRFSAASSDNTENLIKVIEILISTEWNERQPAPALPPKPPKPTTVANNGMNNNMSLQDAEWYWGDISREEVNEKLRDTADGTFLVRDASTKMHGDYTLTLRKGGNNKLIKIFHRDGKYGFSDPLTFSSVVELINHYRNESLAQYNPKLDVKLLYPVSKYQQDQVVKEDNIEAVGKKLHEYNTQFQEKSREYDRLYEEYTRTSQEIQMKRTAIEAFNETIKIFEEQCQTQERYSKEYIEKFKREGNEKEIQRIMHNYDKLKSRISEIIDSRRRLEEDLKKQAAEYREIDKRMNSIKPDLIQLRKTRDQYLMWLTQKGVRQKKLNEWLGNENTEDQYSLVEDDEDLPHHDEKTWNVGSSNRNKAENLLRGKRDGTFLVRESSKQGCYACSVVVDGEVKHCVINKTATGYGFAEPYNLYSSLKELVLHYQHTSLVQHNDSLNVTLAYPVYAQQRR

For orientation: EC50 means the midpoint of the concentration-response curve. The IC50 is the midpoint of a concentration-inhibition curve. As to `Nc1ncc(-c2ccc3nc(NC(=O)C(F)(F)F)cn3c2)cn1` [Example 2, N-[6-(2-Amino-pyrimidin-5-yl)-imidazo[1,2-a]pyridin-2-yl]-2,2,2-trifluoro-acetamide], the EC50 in test [1] and in test [2] (read-out: A2780 pAKT 473 EC50) was less than 25000 nM throughout. Moreover, the IC50 in test [3] (read-out: PI3K Alpha IC50) was less than 1000 nM.

With `CC(=O)Nc1cn2nc(-c3cnc(N)c(-c4ccccc4Oc4ccccc4)c3)ccc2n1` [Example 115, N-(6-(6-amino-5-(2-phenoxyphenyl)pyridin-3-yl)imidazo[1,2-b]pyridazin-2-yl)acetamide], the figures for the EC50 in test [1] and in test [2] (read-out: A2780 pAKT 473 EC50) were less than 10000 nM and less than 1000 nM, respectively. Besides, in test [3] (read-out: PI3K Alpha IC50), the IC50 is less than 1000 nM.

On to `CC(=O)Nc1cn2cc(-c3cnc(N)c(-c4ccc(C(F)(F)F)cc4)c3)ccc2n1` [Example 93, N-(6-(6-amino-5-(4-(trifluoromethyl)phenyl)pyridin-3-yl)imidazo[1,2-a]pyridin-2-yl)acetamide], for which the EC50 in test [1] and in test [2] (read-out: A2780 pAKT 473 EC50) was less than 1000 nM each time. In addition, the 50% inhibitory concentration (IC50) in test [3] (read-out: PI3K Alpha IC50) was less than 1000 nM.

For `CC(C)(C)OC(=O)N1CC[C@H](OCC(=O)Nc2cn3nc(-c4cnc(N)c(C(F)(F)F)c4)ccc3n2)C1` [Example 98, (S)-tert-butyl 3-(2-(6-(6-amino-5-(trifluoromethyl)pyridin-3-yl)imidazo[1,2-b]pyridazin-2-ylamino)-2-oxoethoxy) pyrrolidine-1-carboxylate], the concentration giving a half-maximal response (EC50) in test [1] and in test [2] (read-out: A2780 pAKT 473 EC50) was less than 1000 nM throughout. Besides, in test [3] (read-out: PI3K Alpha IC50), the IC50 is less than 1000 nM.

In the case of `CC(=O)Nc1cn2cc(-c3cnc(N)c(C=O)c3)ccc2n1` [Example 195, N-(6-(6-amino-5-formylpyridin-3-yl)imidazo[1,2-a]pyridin-2-yl)acetamide], the EC50 in test [1] was less than 10000 nM; in test [2] (read-out: A2780 pAKT 473 EC50), less than 1000 nM. Besides, in test [3] (read-out: PI3K Alpha IC50), the IC50 was less than 1000 nM.

With `CC(=O)Nc1nc2ccc(-c3cnc(N)c(C(F)(F)F)c3)c(F)c2s1` [Example 2-30, N-[6-(6-Amino-5-trifluoromethyl-pyridin-3-yl)-7-fluoro-benzothiazol-2-yl]-acetamide], the EC50 in test [1] (72 hrs) was less than 10000 nM; in test [2] (1 h, one hour incubation, read-out: A2780 pAKT473 EC50), less than 1000 nM. In test [3] (ATP depletion assay, read-out: PI3 K Alpha IC50), the IC50 was less than 1000 nM.

On to `CC(=O)Nc1cn2cc(-c3cnc(N)c(-c4ccc(N5CCOCC5)cc4)c3)ccc2n1` [Example 39, N-(6-(6-amino-5-(4-morpholino-phenyl)pyridin-3-yl)imidazo[1,2-a]pyridin-2-yl)acetamide], for which the EC50 in test [1] and in test [2] (read-out: A2780 pAKT 473 EC50) was less than 10000 nM each time. The half-maximal inhibitory concentration (IC50) in test [3] (read-out: PI3K Alpha IC50) is less than 10000 nM.

In the case of `Nc1ncc(-c2ccc3nc(NC(=O)CCCN4CCOCC4)cn3n2)cc1C(F)(F)F` [Example 108, N-(6-(6-amino-5-(trifluoromethyl)pyridin-3-yl)imidazo[1,2-b]pyridazin-2-yl)-4-morpholino-butanamide], the concentration for a half-maximal effect (EC50) in test [1] and in test [2] (read-out: A2780 pAKT 473 EC50) was less than 1000 nM in each case. The IC50 in test [3] (read-out: PI3K Alpha IC50) was less than 1000 nM.

Take `CC(=O)Nc1cn2cc(-c3cnc(N)c(-c4ccccc4)c3)ccc2n1` [Example 124, N-(6-(6-amino-5-phenylpyridin-3-yl)imidazo[1,2-a]pyridin-2-yl)acetamide]: the figures for the EC50 in test [1] and in test [2] (read-out: A2780 pAKT 473 EC50) were less than 10000 nM and less than 1000 nM, respectively. In addition, the IC50 in test [3] (read-out: PI3K Alpha IC50) was less than 1000 nM.

For `Nc1ncc(-c2ccc3nc(NC(=O)CN4CCCCC4)cn3n2)cc1C(F)(F)F` [Example 133, N-(6-(6-amino-5-(trifluoromethyl)pyridin-3-yl)imidazo[1,2-b]pyridazin-2-yl)-2-(piperidin-1-yl)acetamide], the EC50 in test [1] is less than 10000 nM; in test [2] (read-out: A2780 pAKT 473 EC50) it was less than 1000 nM. Besides, in test [3] (read-out: PI3K Alpha IC50), the concentration for half-maximal inhibition (IC50) was less than 1000 nM.

For `CC(=O)Nc1cn2cc(-c3cnc(N)c(-c4ccccc4C(F)(F)F)c3)ccc2n1` [Example 120, N-(6-(6-amino-5-(2-(trifluoromethyl)phenyl)pyridin-3-yl)imidazo[1,2-a]pyridin-2-yl)acetamide], the EC50 is less than 10000 nM in test [1] and less than 1000 nM in test [2] (read-out: A2780 pAKT 473 EC50). Moreover, the IC50 in test [3] (read-out: PI3K Alpha IC50) was less than 1000 nM.

As for `CC(=O)Nc1cn2cc(-c3cnc(N)c(/C=N/NCC(F)(F)F)c3)ccc2n1` [Example 76, (E)-N-(6-(6-amino-5-((2-(2,2,2-trifluoroethyl) hydrazono)methyl)pyridin-3-yl)imidazo[1,2-a]pyridin-2-yl)acetamide], the EC50 in test [1] and in test [2] (read-out: A2780 pAKT 473 EC50) was less than 1000 nM throughout. In addition, in test [3] (read-out: PI3K Alpha IC50), the IC50 was less than 1000 nM.

`Nc1ncc(-c2ccc3nc(NC(=O)CCCN4CCOCC4)cn3c2)cc1C(F)(F)F` [Example 26, N-[6-(6-Amino-5-trifluoromethyl-pyridin-3-yl)-imidazo[1,2-a]pyridin-2-yl]-4-morpholin-4-yl-butyramide]: the values for the EC50 in test [1] and in test [2] (read-out: A2780 pAKT 473 EC50) were less than 10000 nM and less than 1000 nM, respectively. Also, the IC50 in test [3] (read-out: PI3K Alpha IC50) was less than 1000 nM.

As to `CC(=O)Nc1cn2cc(-c3cnc(N)c(-c4ccccc4OC(F)(F)F)c3)ccc2n1` [Example 121, N-(6-(6-amino-5-(2-(trifluoromethoxy)phenyl)pyridin-3-yl)imidazo[1,2-a]pyridin-2-yl)acetamide], the EC50 in test [1] was less than 10000 nM; in test [2] (read-out: A2780 pAKT 473 EC50) it was less than 1000 nM. For the same compound, the IC50 in test [3] (read-out: PI3K Alpha IC50) was less than 1000 nM.

Regarding `CC(=O)Nc1cn2cc(-c3cnc(N)c(Oc4ccccc4)n3)ccc2n1` [Example 75, N-(6-(5-amino-6-phenoxypyrazin-2-yl)imidazo[1,2-a]pyridin-2-yl)acetamide], the EC50 in test [1] and in test [2] (read-out: A2780 pAKT 473 EC50) was less than 1000 nM each time. Also, the IC50 in test [3] (read-out: PI3K Alpha IC50) is less than 1000 nM.

Turning to `CC(=O)Nc1cn2cc(-c3cnc(N)c(-c4cccc(N5CCOCC5)c4)c3)ccc2n1` [Example 86, N-(6-(6-amino-5-(3-morpholino-phenyl)pyridin-3-yl)imidazo[1,2-a]pyridin-2-yl)acetamide], the EC50 in test [1] and in test [2] (read-out: A2780 pAKT 473 EC50) was less than 1000 nM throughout. Also, in test [3] (read-out: PI3K Alpha IC50), the IC50 is less than 1000 nM.

In the case of `CCN1CCCCC1CCC(=O)Nc1cn2nc(-c3cnc(N)c(C(F)(F)F)c3)ccc2n1` (stereo not drawn) [Example 104, N-(6-(6-amino-5-(trifluoromethyl)pyridin-3-yl)imidazo[1,2-b]pyridazin-2-yl)-3-(1-ethylpiperidin-2-yl)propanamide], the 50% effective concentration (EC50) in test [1] and in test [2] (read-out: A2780 pAKT 473 EC50) was less than 1000 nM throughout. Besides, the IC50 in test [3] (read-out: PI3K Alpha IC50) is less than 1000 nM.

In the case of `CN(C)CCCC(=O)Nc1cn2nc(-c3cnc(N)c(C(F)(F)F)c3)ccc2n1` [Example 66, N-(6-(6-amino-5-(trifluoromethyl)pyridin-3-yl)imidazo[1,2-b]pyridazin-2-yl)-4-(dimethylamino) butanamide], the EC50 in test [1] and in test [2] (read-out: A2780 pAKT 473 EC50) was less than 1000 nM in each case. Further, the IC50 in test [3] (read-out: PI3K Alpha IC50) was less than 1000 nM.

Regarding `CC(=O)Nc1cn2c(C)c(-c3cnc(N)c(C(F)(F)F)c3)ccc2n1` [Example 194, N-(6-(6-amino-5-(trifluoromethyl)pyridin-3-yl)-5-methylimidazo[1,2-a]pyridin-2-yl)acetamide], the EC50 in test [1] and in test [2] (read-out: A2780 pAKT 473 EC50) was less than 10000 nM in each case. Besides, in test [3] (read-out: PI3K Alpha IC50), the IC50 was less than 1000 nM.

As to `CC(=O)Nc1cn2cc(-c3cnc(N)c(Oc4cccc(F)c4)n3)ccc2n1` [Example 65, N-(6-(5-amino-6-(3-fluorophenoxy)pyrazin-2-yl)imidazo[1,2-a]pyridin-2-yl)acetamide], the EC50 in test [1] and in test [2] (read-out: A2780 pAKT 473 EC50) was less than 1000 nM throughout. Also, the IC50 in test [3] (read-out: PI3K Alpha IC50) is less than 1000 nM.

Turning to `CC(=O)Nc1nc2ccc(-c3cnc(N)c(C(F)(F)F)c3)cn2c1C#N` [Example 32, N-[6-(6-Amino-5-trifluoromethyl-pyridin-3-yl)-3-cyano-imidazo[1,2-a]pyridin-2-yl]-acetamide], the EC50 in test [1] and in test [2] (read-out: A2780 pAKT 473 EC50) was less than 1000 nM throughout. For the same compound, the IC50 in test [3] (read-out: PI3K Alpha IC50) was less than 1000 nM.
